From patent US9403801B2 (Calitor Sciences, LLC, priority 2014, dated 2016)

What was measured:
JAK2 (h) = JAK2 (h) (Homo sapiens (Human), UniProt O60674); assay: JAK2 kinase assay (33P-ATP filter binding, Millipore); format: biochemical
Protocol: Kinase assays can be performed by measurement of incorporation of γ-^33P ATP into immobilized myelin basic protein (MBP). High binding white 384 well plates (Greiner) are coated with MBP (Sigma #M−1891) by incubation of 60 μL/well of 20 μg/mL MBP in Tris-buffered saline (TBS; 50 mM Tris pH 8.0, 138 mM NaCl, 2.7 mM KCl) for 24 h at 4° C. Plates are washed 3× with 100 μL TBS. Kinase reactions are carried out in a total volume of 34 μL in kinase buffer (5 mM Hepes pH 7.6, 15 mM NaCl, 0.01% bovine gamma globulin (Sigma #I-5506), 10 mM MgCl2, 1 mM DTT, 0.02% TritonX-100). Compound dilutions are performed in DMSO and added to assay wells to a final DMSO concentration of 1%. Each data point is measured in duplicate, and at least two duplicate assays are performed for each individual compound determination. Enzyme is added to final concentrations of 10 nM or 20 nM, for example. A mixture of unlabeled ATP and γ-^33P ATP is added to start the reaction (2×10^6 cpm of γ-^33P ATP per well (3000 Ci/mmole) and 10 μM unlabeled ATP, typically. The reactions are carried out for 1 h at room temperature with shaking. Plates are washed 7× with TBS, followed by the addition of 50 μL/well scintillation fluid (Wallac). Plates are read using a Wallac Trilux counter. This is only one format of such assays; various other formats are possible, as known to one skilled in the art.
The above assay procedure can be used to determine the IC50 for inhibition and/or the inhibition constant, Ki. The IC50 is defined as the concentration of compound required to reduce the enzyme activity by 50% under the condition of the assay. The IC50 value is estimated by preparing a 10 point curve using a 1/2 log dilution series (for example, a typical curve may be prepared using the following compound concentrations: 3 μM, 1 μM, 0.3 μM, 0.1 μM, 0.03 μM, 0.01 μM, 0.003 μM, 0.001 μM, 0.0003 μM and 0 μM).
The kinase assays described herein were performed at Millipore UK Ltd, Dundee Technology Park, Dundee DD2 1SW, UK.

[1] = Compound stability in human liver microsomes; format: in vitro ADME; conditions: for half-life at 5 μM / T1/2: compound 5 μM, NADPH 1.0 mM, 37° C.
Summary of the method: (§1)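 Each compound is tested in duplicate at 5 μM with 0.5 mg/mL microsomal protein plus 1.0 mM NADPH at 37° C, pH 7.4. Depletion over 60 min is followed by LC/MS/MS relative to time zero. CLint is derived by extrapolation.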

JAK1 (h) = JAK1 (h) (Homo sapiens (Human), UniProt P23458); assay: JAK1 kinase assay (33P-ATP filter binding, Millipore); format: biochemical
Chain of JAK1 (h) (P23458 whole entry): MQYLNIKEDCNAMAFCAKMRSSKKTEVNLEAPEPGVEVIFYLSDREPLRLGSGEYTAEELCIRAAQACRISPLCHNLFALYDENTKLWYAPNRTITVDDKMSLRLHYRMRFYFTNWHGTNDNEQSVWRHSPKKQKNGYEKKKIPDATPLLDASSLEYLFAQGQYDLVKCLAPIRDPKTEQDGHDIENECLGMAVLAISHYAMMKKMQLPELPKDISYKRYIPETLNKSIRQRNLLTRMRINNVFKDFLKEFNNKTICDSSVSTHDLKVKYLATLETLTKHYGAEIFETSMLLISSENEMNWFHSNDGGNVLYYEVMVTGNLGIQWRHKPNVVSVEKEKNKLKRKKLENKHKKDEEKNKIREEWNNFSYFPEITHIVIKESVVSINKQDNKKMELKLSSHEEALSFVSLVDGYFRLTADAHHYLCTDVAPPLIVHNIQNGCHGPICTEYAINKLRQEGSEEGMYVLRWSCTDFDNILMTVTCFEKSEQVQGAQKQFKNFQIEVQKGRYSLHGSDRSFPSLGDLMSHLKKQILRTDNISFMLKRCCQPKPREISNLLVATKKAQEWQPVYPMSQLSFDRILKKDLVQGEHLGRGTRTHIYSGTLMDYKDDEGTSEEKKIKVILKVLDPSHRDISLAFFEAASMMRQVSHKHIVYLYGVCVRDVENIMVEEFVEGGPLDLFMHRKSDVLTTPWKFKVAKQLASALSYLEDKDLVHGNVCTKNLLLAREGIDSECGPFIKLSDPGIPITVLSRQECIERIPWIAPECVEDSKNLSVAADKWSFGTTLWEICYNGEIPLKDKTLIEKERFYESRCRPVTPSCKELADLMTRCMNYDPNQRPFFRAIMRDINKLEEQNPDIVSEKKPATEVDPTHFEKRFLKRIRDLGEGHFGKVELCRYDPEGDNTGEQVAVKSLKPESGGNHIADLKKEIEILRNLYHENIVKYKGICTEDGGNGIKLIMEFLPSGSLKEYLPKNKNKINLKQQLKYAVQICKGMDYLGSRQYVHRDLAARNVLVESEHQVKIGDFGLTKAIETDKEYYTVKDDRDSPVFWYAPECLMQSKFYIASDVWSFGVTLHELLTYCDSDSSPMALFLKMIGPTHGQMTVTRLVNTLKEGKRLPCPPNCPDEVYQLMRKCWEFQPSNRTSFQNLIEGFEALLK
Summary of the method: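 Radiometric assay of γ-33P-ATP incorporation into plate-immobilised MBP; kinase buffer pH 7.6 with 10 mM MgCl2, 10 μM unlabelled ATP typical, enzyme 10 or 20 nM final, 1% DMSO. Reactions ran 1 h at room temperature before scintillation counting. IC50 from 10-point half-log dilution curve, duplicates.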

[2] = Compound stability in rat liver microsomes; format: in vitro ADME
Summary of the method: as §1

[3] = Pharmacokinetics after intravenous and oral administration in rats; format: in vivo; conditions: for Clearance (CL) after iv dosing / AUC(0-t) / half-life / Vd: dose 1 mg/kg (Ex. 27: 0.72 mg/kg), iv dosing; for F: oral bioavailability; for AUC(0-t) / half-life / Vd: rat, plasma; for Vd: read-out: Vss
Summary of the method: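 Rats were dosed 1 or 2 mg/kg IV or 5 or 10 mg/kg orally, as water solution, HPMC/Tween 80, DMSO/saline, MC suspension or capsule. Plasma was sampled from 0.083 or 0.25 h up to 24 h and quantified by LC/MS/MS in MRM mode with ESI.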

[4] = human, liver microsomes, pH 7.4, Human liver microsomes 0.5 mg protein/mL
[5] = human, liver microsomes, pH 7.4, Human liver microsomes, in vivo CLint extrapolated
[6] = rat, liver microsomes, pH 7.4, Rat liver microsomes 0.5 mg protein/mL, compound 5 μM, NADPH 1.0 mM, 37° C.
[7] = rat, liver microsomes, pH 7.4, Rat liver microsomes, in vivo CLint extrapolated
[8] = Human liver microsomes 0.5 mg protein/mL
[9] = pH 7.4, Rat liver microsomes 0.5 mg protein/mL, compound 5 μM, NADPH 1.0 mM, 37° C.
[10] = pH 7.4, Rat liver microsomes, in vivo CLint extrapolated
[11] = pH 7.4, Human liver microsomes 0.5 mg protein/mL
[12] = pH 7.4, Human liver microsomes, in vivo CLint extrapolated

Chain of JAK2 (h) (O60674 whole entry): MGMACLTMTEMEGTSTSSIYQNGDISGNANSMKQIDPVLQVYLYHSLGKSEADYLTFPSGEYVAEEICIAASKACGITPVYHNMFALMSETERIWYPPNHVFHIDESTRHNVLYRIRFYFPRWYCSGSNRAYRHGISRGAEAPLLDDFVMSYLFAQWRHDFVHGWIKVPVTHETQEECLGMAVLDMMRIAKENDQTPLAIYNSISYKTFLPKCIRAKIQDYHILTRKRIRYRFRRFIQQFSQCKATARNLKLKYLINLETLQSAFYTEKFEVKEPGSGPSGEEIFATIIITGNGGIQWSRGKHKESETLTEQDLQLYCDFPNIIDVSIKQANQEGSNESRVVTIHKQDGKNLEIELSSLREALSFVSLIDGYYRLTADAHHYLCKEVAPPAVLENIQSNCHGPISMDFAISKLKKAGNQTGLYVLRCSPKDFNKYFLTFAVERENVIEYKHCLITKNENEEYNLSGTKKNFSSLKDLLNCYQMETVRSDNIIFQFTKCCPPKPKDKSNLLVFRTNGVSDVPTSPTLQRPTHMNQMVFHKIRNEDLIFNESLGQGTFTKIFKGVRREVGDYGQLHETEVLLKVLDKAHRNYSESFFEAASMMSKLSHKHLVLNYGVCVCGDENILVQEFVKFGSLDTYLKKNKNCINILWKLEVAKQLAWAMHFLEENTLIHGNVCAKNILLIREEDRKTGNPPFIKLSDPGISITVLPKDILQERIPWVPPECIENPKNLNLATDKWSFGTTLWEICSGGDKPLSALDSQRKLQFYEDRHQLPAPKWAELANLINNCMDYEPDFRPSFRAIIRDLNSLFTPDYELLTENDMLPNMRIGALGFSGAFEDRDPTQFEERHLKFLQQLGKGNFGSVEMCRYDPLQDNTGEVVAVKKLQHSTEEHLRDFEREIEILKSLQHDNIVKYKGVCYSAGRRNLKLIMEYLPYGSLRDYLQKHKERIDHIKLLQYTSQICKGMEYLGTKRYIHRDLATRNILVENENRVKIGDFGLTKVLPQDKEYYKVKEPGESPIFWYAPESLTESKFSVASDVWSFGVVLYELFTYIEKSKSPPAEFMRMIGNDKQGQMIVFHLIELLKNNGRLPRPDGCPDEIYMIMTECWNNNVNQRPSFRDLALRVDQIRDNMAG

half-life at 5 μM [2, 9] [min]	CLint scaled at 5 μM [2, 10] [mL/min/kg]	half-life at 5 μM [1, 11] [min]	CLint scaled at 5 μM [1, 12] [mL/min/kg]	SMILES	IC50 (JAK2 (h)) [nM]	half-life at 5 μM [1, 4] [min]	CLint scaled at 5 μM [1, 5] [mL/min/kg]	IC50 (JAK1 (h)) [nM]	half-life at 5 μM [2, 6] [min]	CLint scaled at 5 μM [2, 7] [mL/min/kg]	Clearance (CL) after iv dosing [3] [mL/min/kg]	F [3] [%]	AUC(0-t) [3] [ng·h/mL]	half-life [3] [min]	Vd [3] [L/kg]	T1/2 [1, 8]	CLint ([1]; Human liver microsomes, in vivo CLint extrapolated) [mL/min/kg]	T1/2 ([2]; Rat liver microsomes 0.5 mg protein/mL, compound 5 μM, NADPH 1.0 mM, 37° C.) [min]	CLint ([2]; Rat liver microsomes, in vivo CLint extrapolated) [mL/min/kg]
–	–	–	–	CN(c1nc(Nc2cnn(C)c2)ncc1Cl)C1CCC2(CC1)CCN(C(=O)CC#N)C2 (single isomer, unassigned) [Ex. 4A, 3-(8-((5-chloro-2-((1-methyl-1H-pyrazol-4-yl)amino)pyrimidin-4-yl)(methyl)amino)-2-azaspiro[4.5]decan-2-yl)-3-oxopropanenitrile]	83	37.3	46.6	20	12.4	200	48.8	21.81	345	51.6	1.38	–	–	–	–
–	–	–	–	Cn1cc(Nc2ncc(Cl)c(NC3CCC4(CC3)CCN(C(=O)CC#N)C4)n2)cn1 (single isomer, unassigned) [Ex. 14B, 3-(8-((5-chloro-2-((1-methyl-1H-pyrazol-4-yl)amino)pyrimidin-4-yl)amino)-2-azaspiro[4.5]decan-2-yl)-3-oxopropanenitrile]	15	–	–	2	–	–	86.8	12.7	193	29.4	2.41	171.8 min	10.12	71.63	34.67
–	–	–	–	Cc1cnc(Nc2cnn(C)c2)nc1NC1CCC2(CC1)CCN(C(=O)CC#N)C2 (stereo not shown) [Ex. 10, 3-(8-((5-methyl-2-((1-methyl-1H-pyrazol-4-yl)amino)pyrimidin-4-yl)amino)-2-azaspiro[4.5]decan-2-yl)-3-oxopropanenitrile]	129	1510	1.15	7	52.6	47.2	–	–	–	–	–	–	–	–	–
12.2	204	158	11	Cn1cc(Nc2ncc(Cl)c(NC3CCC4CN(C(=O)CC#N)CC4C3)n2)cn1 (stereo not shown) [Ex. 22, 3-(5-((5-chloro-2-((1-methyl-1H-pyrazol-4-yl)amino)pyrimidin-4-yl)amino)hexahydro-1H-isoindol-2(3H)-yl)-3-oxopropanenitrile]	6	–	–	2	–	–	94.8	22.6	176	25.8	2.02	–	–	–	–
–	–	–	–	Cc1cnc(Nc2cnn(C)c2)nc1NC1CCC2(CC1)CCN(C(=O)CC#N)CC2 [Ex. 25, 3-(9-((5-methyl-2-((1-methyl-1H-pyrazol-4-yl)amino)pyrimidin-4-yl)amino)-3-azaspiro[5.5]undecan-3-yl)-3-oxopropanenitrile]	86	522	3.33	6	16.8	148	–	–	–	–	–	–	–	–	–
–	–	–	–	Cn1cc(Nc2ncc(Cl)c(NC3CCC4(CC3)CCN(c3ccc(C#N)cn3)CC4)n2)cn1 [Ex. 27, 6-(9-((5-chloro-2-((1-methyl-1H-pyrazol-4-yl)amino)pyrimidin-4-yl)amino)-3-azaspiro[5.5]undecan-3-yl)nicotinonitrile]	23	21.8	79.7	4	9.2	270	27.8	15.0	452	46.2	1.74	–	–	–	–
–	–	–	–	Cn1cc(Nc2ncc(Cl)c(NC3CCC4(CC3)CCN(S(C)(=O)=O)CC4)n2)cn1 [Ex. 29, 5-chloro-N^2-(1-methyl-1H-pyrazol-4-yl)-N^4-(3-(methylsulfonyl)-3-azaspiro[5.5]undecan-9-yl)pyrimidine-2,4-diamine]	5	83.8	20.8	2	40.3	61.6	45.7	19.1	382	49.2	2.05	–	–	–	–
–	–	–	–	Cn1cc(Nc2ncc(Cl)c(NC3CCC4(CC3)CCN(C(=O)C(F)(F)F)CC4)n2)cn1 [Ex. 30, 1-(9-((5-chloro-2-((1-methyl-1H-pyrazol-4-yl)amino)pyrimidin-4-yl)amino)-3-azaspiro[5.5]undecan-3-yl)-2,2,2-trifluoroethanone]	5	38	45.7	0.9	24.2	103	45.7	26.1	370	69	4.77	–	–	–	–
2.31	1080	19	91.6	Cn1cc(Nc2ncc(Cl)c(NC3CC4CN(C(=O)C(F)(F)F)CC4C3)n2)cn1 (stereo not shown) [Ex. 34, 1-(5-((5-chloro-2-((1-methyl-1H-pyrazol-4-yl)amino)pyrimidin-4-yl)amino)hexahydrocyclopenta[c]pyrrol-2(1H)-yl)-2,2,2-trifluoroethanone]	17	–	–	2	–	–	–	–	–	–	–	–	–	–	–
2.72	913	6.65	261	Cn1cc(Nc2ncc(Cl)c(NC3CC4CN(CC(F)(F)F)CC4C3)n2)cn1 (stereo not shown) [Ex. 35, 5-chloro-N^2-(1-methyl-1H-pyrazol-4-yl)-N^4-(2-(2,2,2-trifluoroethyl)octahydrocyclopenta[c]pyrrol-5-yl)pyrimidine-2,4-diamine]	8	–	–	2	–	–	–	–	–	–	–	–	–	–	–
–	–	–	–	Cn1cnc(Nc2ncc(Cl)c(NC3CCC4(CC3)CCN(C(=O)CC#N)CC4)n2)c1 [Ex. 42, 3-(9-((5-chloro-2-((1-methyl-1H-imidazol-4-yl)amino)pyrimidin-4-yl)amino)-3-azaspiro[5.5]undecan-3-yl)-3-oxopropanenitrile]	12	48.9	35.6	3	31.5	78.8	–	–	–	–	–	–	–	–	–

SMILES	half-life at 5 μM [2, 9] [min]	CLint scaled at 5 μM [2, 10] [mL/min/kg]	half-life at 5 μM [1, 11] [min]	CLint scaled at 5 μM [1, 12] [mL/min/kg]	IC50 (JAK2 (h)) [nM]	half-life at 5 μM [1, 4] [min]	CLint scaled at 5 μM [1, 5] [mL/min/kg]	IC50 (JAK1 (h)) [nM]	half-life at 5 μM [2, 6] [min]	CLint scaled at 5 μM [2, 7] [mL/min/kg]	Clearance (CL) after iv dosing [3] [mL/min/kg]	F [3] [%]	AUC(0-t) [3] [ng·h/mL]	half-life [3] [min]	Vd [3] [L/kg]	T1/2 [1, 8]	CLint ([1]; Human liver microsomes, in vivo CLint extrapolated) [mL/min/kg]	T1/2 ([2]; Rat liver microsomes 0.5 mg protein/mL, compound 5 μM, NADPH 1.0 mM, 37° C.) [min]	CLint ([2]; Rat liver microsomes, in vivo CLint extrapolated) [mL/min/kg]
Cn1cc(Nc2ncc(Cl)c(NC3CC4CNCC4C3)n2)cn1 (stereo not shown) [Ex. 11, 5-chloro-N^2-(1-methyl-1H-pyrazol-4-yl)-N^4-(octahydrocyclopenta[c]pyrrol-5-yl)pyrimidine-2,4-diamine]	17.7	140	–	–	176	–	–	27	–	–	105	18.13	146	151	18.6	∞	–	–	–
